The values that follow come from publication PMC7714071, “Interaction of amyloid beta with humanin and acetylcholinesterase is modulated by ATP” (FEBS Open Bio, 2020).

Assay [1] deals with Aβ42. The settings on record: binds directly to Aβ42; cited from earlier work. The text has this:
Almost all types of cells produce amyloid beta (Aβ), a peptide well recognized for its role in the development and progression of different stages of Alzheimer's disease (AD). The Aβ peptide is ~ 4 kDa and derived from the sequential processing of the higher molecular weight amyloid precursor protein by two membrane‐bound endoproteases, β‐ and γ‐secretase. Different C‐terminal Aβ heterogeneity results from processing by γ‐secretase, where Aβ40 represents the most abundant isoform (~ 90%) as compared to Aβ42 (~ 10%). Self‐assembled Aβ40/42 peptides into amyloid fib ... || Amino acid residues involved in direct interactions between HN and Aβ40 were identified previously by molecular modeling. The specific epitopes at the binding interface between HN and Aβ40 were identified, by proteolytic epitope excision and extraction in addition to affinity–mass spectrometric data analysis, to be HN (5–15) and Aβ (17–28). […] Inhibiting the 17–28 region of Aβ reduced aggregation of the neurotoxic amyloid fibrils and related cytotoxicity in SH‐SY5Y, a human neuroblastoma cell ... || Acetylcholinesterase (AChE) is an enzyme known for its role in terminating acetylcholine‐mediated neurotransmission at the synaptic cleft. The majority of the cortical AChE in the Alzheimer's brain is mainly associated with the amyloid core of senile plaques. […]

The subject of assay [2] is Aβ42. Nature of the assay: ELISA, binding of biotinylated-HN to immobilised Aβ42. The settings on record: Aβ 100 nM on wells, biotinylated-HN 300 nM, increasing HS; three independent assays; Fig. 2B. The procedure: ELISAs were carried out as we previously reported. Nunc MaxiSorp 96‐well flat bottom plate (Thermo Fisher) wells were coated with samples as indicated. The plates were incubated overnight at 4 °C on a shaker to allow binding of the samples to the plate wells. After the incubation, the wells were washed 4× with TBST, filled with 400 µL blocking buffer (110 mM KCl, 5 mM NaHCO3, 5 mM MgCl2, 1 mM EGTA, 0.1 mM CaCl2, 20 mM HEPES, 1% BSA, pH 7.4), and incubated with shaking overnight at 4 °C. The wells were then washed 4× with TBST, and 100 µL of sample at the desired concentration was added to each well and incubated with shaking overnight at 4 °C. TBST was then used to wash the wells 4× before proceeding in one of two ways: (a) biotinylated samples were analyzed by adding 100 µL streptavidin–HRP conjugate in TBST (1 : 2500 dilution) to the samples followed by incubation for 3 h at RT on a shaker, or (b) samples without biotin were analyzed by adding 100 µL TBST containing the primary antibody as per the manufacturer's recommendation, incubating for 3 h at RT on a shaker, followed by washing the wells 4× with TBST. […] The reaction was stopped with 100 µL 2 M H2SO4 after incubating at RT for 0.5–15 min, resulting in a yellow color change, measured by absorbance at 450 nm. […] Statistical analysis was determined by the […] […] Data were expressed as the mean ± SD. […]

As for Humanin [HN], the antioligomeric activity entry with Aβ42 [1] is reported as “exhibit antioligomeric activity”. Take heparan sulfate [HS]: the “effect of HS on binding of HN to Aβ42” value with Aβ42 [2] is listed as “No effects”.
